Assay results as given in patent US8420658B2, “Use of Carboxyamidotriazole (CAI) orotate in macular degeneration” (Tactical Therapeutics Inc, priority 2006, dated 2013).

Key:
[1] = system: Human umbilical vein endothelial cells (HUVEC); assay: Proliferation assay for endothelial cells (HUVEC), cell count after 3 days of treatment; assay type: cell-based; details: HUVEC treated with three different concentrations for 3 days; triplicate; FIG. 1
Protocol: FIG. 1 illustrates the results of the proliferation assay for endothelial cells (HUVEC).
Human umbilical vein endothelial cells (HUVEC) were treated with three different concentrations of Carboxyamidotriazole or 5 amino 1,2,3-triazole orotate (CAI Orotate) for 3 days. The cell number of each culture under different treatment conditions was counted. The assays were done in triplicate and the data are expressed as mean +/− standard deviation.

[2] = system: Dunning rat model for prostate cancer; details: orotate salt of CAI compared with CAI; from U.S. Pat. Nos. 5,861,406 and 5,912,346; cited from earlier work

For `NC(=O)c1nnn(Cc2cc(Cl)c(C(=O)c3ccc(Cl)cc3)c(Cl)c2)c1N.O=C(O)c1cc(=O)[nH]c(=O)[nH]1` [CAI Orotate, Carboxyamidotriazole or 5 amino 1,2,3-triazole orotate], the “Inhibition of angiogenesis (HUVEC cell number)” value [1] is given as “inhibited angiogenesis in a dose related manner” and the “Antitumor effect compared with CAI” value [2] is given as “improved antitumor effect”.
